Results from ChEMBL document CHEMBL1201861, “Genomics of Drug Sensitity in Cancer screening data, Wellcome Trust Sanger Institute”.

Legend:
Assay in all cases: cells
D-542MG = type: functional, cell-based, Homo sapiens; details: Homo sapiens, D-542MG
Description: SANGER: Inhibition of human D-542MG cell growth in a cell viability assay.

SBC-1 = type: functional, cell-based; details: Homo sapiens;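 further: cell viability assay measuring growth inhibition of the SBC-1 cell line, IC50 being the concentration that halves growth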
Description: SANGER: Inhibition of human SBC-1 cell growth in a cell viability assay.

Ca9-22 = type: functional, cell-based, Homo sapiens; details: Homo sapiens, Ca9-22;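 further: growth inhibition of Ca9-22 cells, read out with a cell viability assay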
Description: SANGER: Inhibition of human Ca9-22 cell growth in a cell viability assay.

639-V = type: functional, cell-based, Homo sapiens; details: Homo sapiens, 639-V;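 further: growth inhibition of 639-V cells, read out with a cell viability assay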
Description: SANGER: Inhibition of human 639-V cell growth in a cell viability assay.

KMOE-2 = type: functional, cell-based; details: Homo sapiens;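 further: growth inhibition of human KMOE-2 cells, read out with a cell viability assay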
Description: SANGER: Inhibition of human KMOE-2 cell growth in a cell viability assay.

KALS-1 = type: functional, cell-based, Homo sapiens; details: Homo sapiens, KALS-1;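 further: growth inhibition of KALS-1 cells, determined with a cell viability assay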
Description: SANGER: Inhibition of human KALS-1 cell growth in a cell viability assay.

TE-9 = type: functional, cell-based, Homo sapiens; details: Homo sapiens, TE-9;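 further: cell growth inhibition, measured with a cell viability readout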
Description: SANGER: Inhibition of human TE-9 cell growth in a cell viability assay.

NY = type: functional, cell-based, Homo sapiens; details: Homo sapiens, NY
Description: SANGER: Inhibition of human NY cell growth in a cell viability assay.

MEL-HO = type: functional, cell-based, Homo sapiens; details: Homo sapiens, MEL-HO
Description: SANGER: Inhibition of human MEL-HO cell growth in a cell viability assay.

SK-MEL3 = type: functional, cell-based, Homo sapiens, SK-MEL-3; details: Homo sapiens, SK-MEL3;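 further: growth inhibition of human SK-MEL-3 cells, read out with a cell viability assay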
Description: SANGER: Inhibition of human SK-MEL-3 cell growth in a cell viability assay.

CAKI-1 = type: functional, cell-based, Homo sapiens; details: Homo sapiens, CAKI-1;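 further: growth inhibition of CAKI-1 cells, measured by a cell viability assay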
Description: SANGER: Inhibition of human CAKI-1 cell growth in a cell viability assay.

RVH-421 = type: functional, cell-based, Homo sapiens; details: Homo sapiens, RVH-421
Description: SANGER: Inhibition of human RVH-421 cell growth in a cell viability assay.

PANC-03-27 = type: functional, cell-based, Homo sapiens; details: Homo sapiens, PANC-03-27
Description: SANGER: Inhibition of human PANC-03-27 cell growth in a cell viability assay.

NCI-H1437 = type: functional, cell-based, Homo sapiens; details: Homo sapiens, NCI-H1437;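 further: growth inhibition of human NCI-H1437 cells, read out by a cell viability assay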
Description: SANGER: Inhibition of human NCI-H1437 cell growth in a cell viability assay.

SK-HEP1 = type: functional, cell-based, Homo sapiens, SK-HEP-1; details: Homo sapiens, SK-HEP1;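 further: cell viability readout used to quantify reduction in proliferation of human SK-HEP-1 cells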
Description: SANGER: Inhibition of human SK-HEP-1 cell growth in a cell viability assay.

UACC-257 = type: functional, cell-based, Homo sapiens; details: Homo sapiens, UACC-257
Description: SANGER: Inhibition of human UACC-257 cell growth in a cell viability assay.

T84 = type: functional, cell-based, Homo sapiens; details: Homo sapiens, T84;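 further: growth inhibition measured with a cell viability readout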
Description: SANGER: Inhibition of human T84 cell growth in a cell viability assay.

CWR22R = type: functional, cell-based, Homo sapiens; details: Homo sapiens, 22Rv1;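 further: growth inhibition of 22Rv1 cells, read out with a cell viability assay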
Description: SANGER: Inhibition of human 22RV1 cell growth in a cell viability assay.

SK-LMS-1 = type: functional, cell-based, Homo sapiens; details: Homo sapiens, SK-LMS-1;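 further: growth inhibition of human SK-LMS-1 cells, read out with a cell viability assay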
Description: SANGER: Inhibition of human SK-LMS-1 cell growth in a cell viability assay.

HT-1080 = type: functional, cell-based, Homo sapiens; details: Homo sapiens, HT-1080
Description: SANGER: Inhibition of human HT-1080 cell growth in a cell viability assay.

MOLT-16 = type: functional, cell-based; details: Homo sapiens;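 further: growth inhibition of human MOLT-16 cells, read out with a cell viability assay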
Description: SANGER: Inhibition of human MOLT-16 cell growth in a cell viability assay.

NCI-H69 = type: functional, cell-based; details: Homo sapiens;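 further: growth inhibition of the cell line, read out with a cell viability assay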
Description: SANGER: Inhibition of human NCI-H69 cell growth in a cell viability assay.

KS-1 = type: functional, cell-based, Homo sapiens; details: Homo sapiens, KS-1;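 further: growth inhibition of KS-1 cells, read out with a cell viability assay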
Description: SANGER: Inhibition of human KS-1 cell growth in a cell viability assay.

SNU-449 = type: functional, cell-based, Homo sapiens; details: Homo sapiens, SNU-449
Description: SANGER: Inhibition of human SNU-449 cell growth in a cell viability assay.

MZ7-mel = type: functional, cell-based, Homo sapiens; details: Homo sapiens, MZ7-mel;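 further: growth inhibition of human MZ7-mel cells, measured by a cell viability assay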
Description: SANGER: Inhibition of human MZ7-mel cell growth in a cell viability assay.

NCI-H1623 = type: functional, cell-based, Homo sapiens; details: Homo sapiens, NCI-H1623;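 further: cell viability assay used as the read-out for growth inhibition of NCI-H1623 cells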
Description: SANGER: Inhibition of human NCI-H1623 cell growth in a cell viability assay.

CAPAN-1 = type: functional, cell-based, Homo sapiens; details: Homo sapiens, CAPAN-1;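 further: growth suppression of CAPAN-1 cells, read out by a cell viability assay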
Description: SANGER: Inhibition of human CAPAN-1 cell growth in a cell viability assay.

L-363 = type: functional, cell-based; details: Homo sapiens
Description: SANGER: Inhibition of human L-363 cell growth in a cell viability assay.

GI-ME-N = type: functional, cell-based, Homo sapiens; details: Homo sapiens, GI-ME-N;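 further: growth inhibition of human GI-ME-N cells, read out with a cell viability assay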
Description: SANGER: Inhibition of human GI-ME-N cell growth in a cell viability assay.

OE33 = type: functional, cell-based, Homo sapiens; details: Homo sapiens, OE33;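 further: growth inhibition of human OE33 cells, measured by a cell viability assay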
Description: SANGER: Inhibition of human OE33 cell growth in a cell viability assay.

D-502MG = type: functional, cell-based, Homo sapiens; details: Homo sapiens, D-502MG
Description: SANGER: Inhibition of human D-502MG cell growth in a cell viability assay.

JVM-3 = type: functional, cell-based; details: Homo sapiens;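 further: growth inhibition of human JVM-3 cells, read out with a cell viability assay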
Description: SANGER: Inhibition of human JVM-3 cell growth in a cell viability assay.

NCI-H358 = type: functional, cell-based, Homo sapiens; details: Homo sapiens, NCI-H358;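 further: growth inhibition of NCI-H358 human cells, read out with a cell viability assay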
Description: SANGER: Inhibition of human NCI-H358 cell growth in a cell viability assay.

MC-IXC = type: functional, cell-based, Homo sapiens; details: Homo sapiens, MC-IXC;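 further: growth inhibition of MC-IXC cells, read out with a cell viability assay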
Description: SANGER: Inhibition of human MC-IXC cell growth in a cell viability assay.

KU-19-19 = type: functional, cell-based, Homo sapiens; details: Homo sapiens, KU-19-19
Description: SANGER: Inhibition of human KU-19-19 cell growth in a cell viability assay.

NCI-H1770 = type: functional, cell-based; details: Homo sapiens;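 further: growth inhibition of NCI-H1770 cells determined with a viability readout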
Description: SANGER: Inhibition of human NCI-H1770 cell growth in a cell viability assay.

MHH-NB-11 = type: functional, cell-based, Homo sapiens; details: Homo sapiens, MHH-NB-11;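 further: growth inhibition of human MHH-NB-11 cells, read out by a cell viability assay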
Description: SANGER: Inhibition of human MHH-NB-11 cell growth in a cell viability assay.

MIA PaCa-2 = type: functional, cell-based, Homo sapiens; details: Homo sapiens, MIA PaCa-2;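 further: growth inhibition of MIA PaCa-2 cells, read out with a cell viability assay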
Description: SANGER: Inhibition of human MIA-PaCa-2 cell growth in a cell viability assay.

CAL-85-1 = type: functional, cell-based; details: Homo sapiens;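 further: growth inhibition of human CAL-85-1 cells, read out with a cell viability assay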
Description: SANGER: Inhibition of human CAL-85-1 cell growth in a cell viability assay.

SW1990 = type: functional, cell-based, Homo sapiens; details: Homo sapiens, SW1990;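 further: cell growth inhibition determined with a viability assay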
Description: SANGER: Inhibition of human SW1990 cell growth in a cell viability assay.

HCC1806 = type: functional, cell-based, Homo sapiens; details: Homo sapiens, HCC1806;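 further: growth inhibition of the cancer cell line, determined with a cell viability assay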
Description: SANGER: Inhibition of human HCC1806 cell growth in a cell viability assay.

HCC1954 = type: functional, cell-based, Homo sapiens; details: Homo sapiens, HCC1954;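 further: growth inhibition of human HCC1954 cells, read out with a cell viability assay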
Description: SANGER: Inhibition of human HCC1954 cell growth in a cell viability assay.

NCI-N87 = type: functional, cell-based, Homo sapiens; details: Homo sapiens, NCI-N87;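 further: growth inhibition of human NCI-N87 cells, read out with a cell viability assay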
Description: SANGER: Inhibition of human NCI-N87 cell growth in a cell viability assay.

KYSE-270 = type: functional, cell-based, Homo sapiens; details: Homo sapiens, KYSE-270;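 further: cell growth inhibition measured with a viability assay in the human KYSE-270 line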
Description: SANGER: Inhibition of human KYSE-270 cell growth in a cell viability assay.

NCI-H292 = type: functional, cell-based, Homo sapiens; details: Homo sapiens, NCI-H292;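 further: growth inhibition of NCI-H292 cells, read out with a cell viability assay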
Description: SANGER: Inhibition of human NCI-H292 cell growth in a cell viability assay.

SN12C = type: functional, cell-based, Homo sapiens; details: Homo sapiens, SN12C;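 further: growth inhibition of human SN12C cells, measured by a cell viability assay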
Description: SANGER: Inhibition of human SN12C cell growth in a cell viability assay.

VA-ES-BJ = type: functional, cell-based, Homo sapiens; details: Homo sapiens, VA-ES-BJ;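 further: growth inhibition of the VA-ES-BJ cell line, read out by a cell viability assay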
Description: SANGER: Inhibition of human VA-ES-BJ cell growth in a cell viability assay.

NCI-H1793 = type: functional, cell-based, Homo sapiens; details: Homo sapiens, NCI-H1793;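 further: cell growth inhibition, read out by a cell viability assay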
Description: SANGER: Inhibition of human NCI-H1793 cell growth in a cell viability assay.

TGBC1TKB = type: functional, cell-based, Homo sapiens; details: Homo sapiens, TGBC1TKB;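 further: growth inhibition of TGBC1TKB cells, read out by a cell viability assay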
Description: SANGER: Inhibition of human TGBC1TKB cell growth in a cell viability assay.

CCC1=C[C@@H]2CN(C1)Cc1c([nH]c3ccccc13)[C@@](C(=O)OC)(c1cc3c(cc1OC)N(C)[C@H]1[C@@](O)(C(=O)OC)[C@H](OC(C)=O)[C@]4(CC)C=CCN5CC[C@]31[C@@H]54)C2 [VINORELBINE]
IC50 (D-542MG): > 64 nM | IC50 (SBC-1): > 64 nM | IC50 (Ca9-22): 10.3 nM | IC50 (639-V): 6.61 nM | IC50 (KMOE-2): > 64 nM | IC50 (KALS-1): 3.9 nM | IC50 (TE-9): 1.08 nM | IC50 (NY): 8.12 nM | IC50 (MEL-HO): 3.29 nM | IC50 (SK-MEL3): 17.3 nM | IC50 (CAKI-1): > 64 nM | IC50 (RVH-421): 3.88 nM | IC50 (PANC-03-27): 5.95 nM | IC50 (NCI-H1437): 7.11 nM | IC50 (SK-HEP1): 4.52 nM | IC50 (UACC-257): 30.4 nM | IC50 (T84): 53.9 nM | IC50 (CWR22R): 8.79 nM | IC50 (SK-LMS-1): 1.46 nM | IC50 (HT-1080): 2.49 nM | IC50 (MOLT-16): 12.8 nM | IC50 (NCI-H69): 6.34 nM | IC50 (KS-1): 1.47 nM | IC50 (SNU-449): > 64 nM | IC50 (MZ7-mel): 10.2 nM | IC50 (NCI-H1623): 28.5 nM | IC50 (CAPAN-1): 14.2 nM | IC50 (L-363): 12.4 nM | IC50 (GI-ME-N): 5.76 nM | IC50 (OE33): 20.4 nM | IC50 (D-502MG): > 64 nM | IC50 (JVM-3): > 64 nM | IC50 (NCI-H358): 5.89 nM | IC50 (MC-IXC): 1.49 nM | IC50 (KU-19-19): > 64 nM | IC50 (NCI-H1770): 5.53 nM | IC50 (MHH-NB-11): 17.7 nM | IC50 (MIA PaCa-2): 5.83 nM | IC50 (CAL-85-1): 4.9 nM | IC50 (SW1990): > 64 nM | IC50 (HCC1806): 23.9 nM | IC50 (HCC1954): 10.1 nM | IC50 (NCI-N87): 44.1 nM | IC50 (KYSE-270): 3.16 nM | IC50 (NCI-H292): 5.05 nM | IC50 (SN12C): 33.1 nM | IC50 (VA-ES-BJ): 4.23 nM | IC50 (NCI-H1793): 19.2 nM | IC50 (TGBC1TKB): > 64 nM

CO[C@H]1C[C@@H]2CC[C@@H](C)[C@@](O)(O2)C(=O)C(=O)N2CCCC[C@H]2C(=O)O[C@H]([C@H](C)C[C@@H]2CC[C@@H](O)[C@H](OC)C2)CC(=O)[C@H](C)/C=C(\C)[C@@H](O)[C@@H](OC)C(=O)[C@H](C)C[C@H](C)/C=C/C=C/C=C/1C [SIROLIMUS]
IC50 (SBC-1): > 100 nM | IC50 (KMOE-2): > 100 nM | IC50 (KALS-1): 6.56 nM | IC50 (TE-9): > 100 nM | IC50 (UACC-257): > 100 nM | IC50 (SK-LMS-1): 2.49 nM | IC50 (MOLT-16): > 100 nM | IC50 (NCI-H69): > 100 nM | IC50 (KS-1): 2.45 nM | IC50 (MZ7-mel): > 100 nM | IC50 (L-363): 44.7 nM | IC50 (GI-ME-N): > 100 nM | IC50 (D-502MG): > 100 nM | IC50 (JVM-3): > 100 nM | IC50 (NCI-H1770): > 100 nM | IC50 (MHH-NB-11): > 100 nM | IC50 (NCI-N87): > 100 nM | IC50 (VA-ES-BJ): 0.723 nM | IC50 (TGBC1TKB): 2.69 nM

CCC(=O)N1CCN(c2ccc(-n3c(=O)ccc4cnc5ccc(-c6cnc7ccccc7c6)cc5c43)cc2C(F)(F)F)CC1 [TORIN1]
IC50 (SBC-1): 111 nM | IC50 (KMOE-2): 275 nM | IC50 (KALS-1): 12 nM | IC50 (TE-9): 290 nM | IC50 (UACC-257): 98.3 nM | IC50 (SK-LMS-1): 14.1 nM | IC50 (MOLT-16): 16.2 nM | IC50 (NCI-H69): 502 nM | IC50 (KS-1): 13.9 nM | IC50 (MZ7-mel): 26.1 nM | IC50 (L-363): 2.84 nM | IC50 (GI-ME-N): 180 nM | IC50 (D-502MG): > 1200 nM | IC50 (JVM-3): > 1200 nM | IC50 (NCI-H1770): > 1200 nM | IC50 (MHH-NB-11): > 1200 nM | IC50 (VA-ES-BJ): 9.84 nM | IC50 (TGBC1TKB): 3.79 nM

CS(=O)(=O)CCNCc1ccc(-c2ccc3ncnc(Nc4ccc(OCc5cccc(F)c5)c(Cl)c4)c3c2)o1 [LAPATINIB]
IC50 (D-542MG): > 2000 nM | IC50 (SBC-1): > 2000 nM | IC50 (KMOE-2): > 2000 nM | IC50 (KALS-1): > 2000 nM | IC50 (TE-9): 745 nM | IC50 (UACC-257): > 2000 nM | IC50 (SK-LMS-1): > 2000 nM | IC50 (MOLT-16): > 2000 nM | IC50 (NCI-H69): > 2000 nM | IC50 (KS-1): > 2000 nM | IC50 (MZ7-mel): > 2000 nM | IC50 (L-363): > 2000 nM | IC50 (GI-ME-N): > 2000 nM | IC50 (D-502MG): > 2000 nM | IC50 (JVM-3): > 2000 nM | IC50 (NCI-H1770): > 2000 nM | IC50 (MHH-NB-11): > 2000 nM | IC50 (VA-ES-BJ): > 2000 nM | IC50 (TGBC1TKB): > 2000 nM
